{"source": "patent US12357608B2", "about": "“Methods and compositions utilizing RRx-001 combination therapy for radioprotection” (priority 2018, dated 2025)", "key": {"bone marrow": {"system": "bone marrow", "test": "Histopathological analysis of bone marrow sternebrae (cellularity grade, megakaryocytes) after sublethal TBI or sham irradiation", "assay_type": "in vivo, mice", "experimental": "To determine the pathophysiological effects of RRx-001 on hematopoietic protection in mice, CD2F1 male mice were treated with 10 mg/kg RRx-001 or the vehicle control 24 hours prior to a sublethal dose of TBI (7 Gy at 0.6 Gy/min using High-level Cobalt-60) or sham irradiation (day 0) according to the table below.\nCD2F1 male mice (n=3/group) were divided into 4 experimental groups: 1) irradiation+vehicle, 2) irradiation+RRx-001, 3) sham-irradiation+vehicle and 4) sham-irradiation+RRx-001. Either 10 mg/kg RRx-001 or the vehicle control were IP injected 24 hours prior to either irradiation or sham-irradiation (day 0). On days 2, 7, 14, 21, and 28 post-irradiation (day 0) mice were humanely euthanized. Blood, bone marrow, and sternebrae were then collected. This experiment was performed in duplicate for a total of n=6 mice/group/time point.\nSternebrae from euthanized mice (n=6/group/time point) were collected on days 2, 7, 14, 21 and 28 post-irradiation. Sternebrae were fixed in 10% zinc-buffered formalin for at least 24 hours and up to 7 days. Fixed sternebrae were decalcified for 3 hr in 12-18% sodium EDTA (pH 7.4-7.5) and specimens dehydrated using graded ethanol concentrations and embedded in paraffin. Longitudinal 4 μm sections were stained with regular hematoxylin and eosin. Two board-certified pathologist conducted histopathological evaluation of the samples. One of the pathologist scored all the samples blindly. Bone marrow was evaluated in situ within sternebrae and graded (Grade 1: <10%; Grade 2: 11-30%; Grade 3: 31-60%; Grade 4: 61-89%; Grade 5: >90%) for total cellularity. Megakaryocytes were also quantified based on the average per 10 high power fields (HPF) at 400× magnification using a BX43 or BX53 microscope (Olympus, Minneapolis, MN). Images were captured with an Olympus DP22 camera and imported into Olympus Cellsens Standard software for review.\nBlood parameters were compared between treatment groups using an analysis of variance (ANOVA). The Wilcoxon test was also used for sensitivity and to potentially address data departures from normality. A longitudinal mixed model repeated measures was also implemented to provide a more complete data analysis of the sham-irradiated treatment groups' difference in overall time profile mean based on the blood parameters. Bone marrow data (megakaryocytes and grade) statistical analysis was carried out using a parametric test consisting of a general linear model analysis of variance (ANOVA with factors consisting of treatment group and pathologist) and the Kruskal-Wallis nonparametric test. The statistical data analysis was carried out using R software (Version 3.4.3, 2016) and the graphs made using GraphPad Prism version 7.03 (GraphPad Software, La Jolla, CA).\nTo determine the effect of RRx-001 on bone marrow, a histopathological analysis of bone marrow sternebrae was performed and the cellularity, as reported by grade (grade 1: <10%; grade 2: 11-30%; grade 3: 31-60%; grade 4: 61-89%; grade 5: ≥90% cellularity), and megakaryocyte numbers (averaged per 10 high-powered fields; HPF) were ascertained by two pathologists, one of which scored all the samples blindly (TAS, WEC)."}, "[1]": {"system": "human normal bone marrow mesenchymal stem cells (hMSC)", "test": "Western blotting of antioxidant response element (ARE) proteins in irradiated hMSC", "assay_type": "cell-based", "conditions": "5 mM RRx-001 16 hours", "experimental": "Antioxidant response element (ARE) genes such as heme oxygenase 1 (HO-1), NAD(P)H Dehydrogenase [Quinone] 1 (NQO-1) and Superoxide Dismutase (SOD) are involved in the detoxification and elimination of reactive oxidants.\nExpression of ARE proteins was assayed in hMSC, macrophages, and monocytes following in vitro irradiation of the cells, which were pretreated with RRx-001 or vehicle. Protein expression was assayed by Western blotting and protein quantification.\nhMSC were treated for 16 hours with […] RRx-001 or the vehicle control (0.05% DMSO), irradiated at 10 Gy or sham-irradiated and the protein collected 8 or 24 hours post-sham or irradiation. Human monocytic leukemic THP-1 and U937 cells were differentiated into macrophages with 50 nM Phorbol 12-myristate 13-acetate (PMA) for 24 hours before treatment. Differentiated and non-differentiated cells were treated with […] RRx-001 or 0.05% DMSO (vehicle control) for 16 hours prior to radiation. The cells were irradiated at 5 Gy or sham-irradiated and collected 4-8 hours later for both analysis. For each experiment, duplicates of each sample were run."}, "Nrf2": {"system": "Nrf2", "conditions": "tumor cells exposed to RRx-001; Ning et al., Oncotarget 2015; cited from earlier work"}}, "note": "“Also recorded” adds a separate entry of the source.", "data": [{"smiles": "O=C(CBr)N1CC([N+](=O)[O-])([N+](=O)[O-])C1", "note": "[RRx-001, 2-bromo-1-(3,3-dinitroazetidin-1-yl)ethan-1-one]", "values": [{"measurement": "bone marrow cellularity compared to the vehicle control", "setting": "bone marrow; 7 Gy TBI, 10 mg/kg IP 24 h before, day 7", "result": "slight increase in cellularity"}, {"measurement": "hematopoietic recovery by grade of bone marrow cellularity compared with control", "setting": "bone marrow; 7 Gy TBI, 10 mg/kg IP 24 h before, day 14, 10 mg/kg", "result": "significantly accelerated hematopoietic recovery; also recorded: significant increase in bone marrow cellularity"}, {"measurement": "number of megakaryocytes", "setting": "bone marrow; 7 Gy TBI, 10 mg/kg, between days 7-28", "result": "steady increase"}, {"measurement": "number of megakaryocytes", "setting": "bone marrow; 7 Gy TBI, 10 mg/kg, day 2", "result": "reduced"}, {"measurement": "number of megakaryocytes", "setting": "bone marrow; 7 Gy TBI, 10 mg/kg, day 7", "result": "severely depleted"}, {"measurement": "bone marrow cellularity grade", "setting": "bone marrow; after 7 Gy TBI, 10 mg/kg IP 24 h before", "result": "1 (grade 1: <10%)"}, {"measurement": "SOD1 and 2 expression", "setting": "[1]; 10 Gy irradiation, 8 hours", "result": "slight increase"}, {"measurement": "HO-1 expression increase", "setting": "[1]; 24 hours post-sham or irradiation", "result": "2-3.5 fold"}, {"measurement": "NQO-1 expression", "setting": "[1]; all groups", "result": "slightly reduced"}, {"measurement": "HO-1 expression increase", "setting": "[1]; sham and 10 Gy irradiated groups, 8 hours post-sham or irradiation", "result": "22-26 fold"}, {"measurement": "nuclear presence of transcription factor Nrf2", "setting": "Nrf2", "result": "increased nuclear presence"}]}]}
